Data: ChEMBL document CHEMBL3585283, “Synthesis and evaluation of a series of quinolinyl trans-cyanostilbene analogs as anticancer agents” (2014)
Active and inactive are the calls of the source. No cut-off for these calls is given here.

Experiments:
A549 = assay: Antitumor activity against human A549 cells after 48 hrs; format: functional; conditions: A549, 48 h
[1] = Antitumor activity against human HOP92 cells after 48 hrs; format: functional; conditions: HOP-92, 48 h
K562 = assay: Antitumor activity against human K562 cells after 48 hrs; format: functional; conditions: K562, 48 h
[2] = Antitumor activity against human RPMI8226 cells after 48 hrs; format: functional; conditions: RPMI-8226, 48 h
SK-MEL-28 = assay: Antitumor activity against human SK-MEL-28 cells after 48 hrs; format: functional; conditions: SK-MEL-28, 48 h
SNB-75 = assay: Antitumor activity against human SNB75 cells after 48 hrs; format: functional; conditions: SNB-75, 48 h
A498 = assay: Antitumor activity against human A498 cells after 48 hrs; format: functional; conditions: A498, 48 h
Malme-3M = assay: Antitumor activity against human MALME-3M cells after 48 hrs; format: functional
[3] = Antitumor activity against human Hs578T cells after 48 hrs; format: functional; conditions: Hs-578T
NCI-H322M = assay: Antitumor activity against human NCI-H322M cells after 48 hrs; format: functional
TK-10 = assay: Antitumor activity against human TK10 cells after 48 hrs; format: functional; conditions: TK-10, 48 h
[4] = Antitumor activity against human LOXIMVI cells after 48 hrs; format: functional; conditions: LOX IMVI
[5] = Antitumor activity against human BT549 cells after 48 hrs; format: functional; conditions: BT-549, 48 h
NCI-H460 = assay: Antitumor activity against human NCI-H460 cells after 48 hrs; format: functional; conditions: NCI-H460, 48 h
[6] = Antitumor activity against human COLO205 cells after 48 hrs; format: functional; conditions: COLO 205, 48 h
SK-MEL-2 = assay: Antitumor activity against human SK-MEL-2 cells after 48 hrs; format: functional; conditions: SK-MEL-2, 48 h
CAKI-1 = assay: Antitumor activity against human Caki1 cells after 48 hrs; format: functional; conditions: CAKI-1, 48 h
UACC-62 = assay: Antitumor activity against human UACC62 cells after 48 hrs; format: functional; conditions: UACC-62, 48 h
MDA-MB-468 = assay: Antitumor activity against human MDA-MB-468 cells after 48 hrs; format: functional; conditions: MDA-MB-468, 48 h
EKVX = assay: Antitumor activity against human EKVX cells after 48 hrs; format: functional, cell-based
[7] = Antitumor activity against human SF295 cells after 48 hrs; format: functional; conditions: SF-295, 48 h
OVCAR-5 = assay: Antitumor activity against human OVCAR5 cells after 48 hrs; format: functional; conditions: OVCAR-5, 48 h
SR = assay: Antitumor activity against human SR cells after 48 hrs; format: functional
IGROV-1 = assay: Antitumor activity against human IGROV1 cells after 48 hrs; format: functional; conditions: IGROV-1, 48 h
KM12 = assay: Antitumor activity against human KM12 cells after 48 hrs; format: functional; conditions: KM12, 48 h
OVCAR-3 = assay: Antitumor activity against human OVCAR3 cells after 48 hrs; format: functional; conditions: OVCAR-3, 48 h
[8] = Antitumor activity against human SF539 cells after 48 hrs; format: functional; conditions: SF-539, 48 h
NCI-H23 = assay: Antitumor activity against human NCI-H23 cells after 48 hrs; format: functional; conditions: NCI-H23, 48 h
M14 = assay: Antitumor activity against human M14 cells after 48 hrs; format: functional; conditions: M14, 48 h
OVCAR-8 = assay: Antitumor activity against human OVCAR8 cells after 48 hrs; format: functional; conditions: OVCAR-8, 48 h
NCI-H522 = assay: Antitumor activity against human NCI-H522 cells after 48 hrs; format: functional; conditions: NCI-H522, 48 h
[9] = Antitumor activity against human MOLT4 cells after 48 hrs; format: functional; conditions: MOLT-4, 48 h
OVCAR-4 = assay: Antitumor activity against human OVCAR4 cells after 48 hrs; format: functional; conditions: OVCAR-4, 48 h
U-251 = assay: Antitumor activity against human U251 cells after 48 hrs; format: functional; conditions: U-251, 48 h
[10] = Antitumor activity against human NCI-ADR-RES cells after 48 hrs; format: functional
MDA-MB-231 = assay: Antitumor activity against human MDA-MB-231 cells after 48 hrs; format: functional; conditions: MDA-MB-231, 48 h
SF-268 = assay: Antitumor activity against human SF268 cells after 48 hrs; format: functional; conditions: SF-268, 48 h
SN12C = assay: Antitumor activity against human SN12C cells after 48 hrs; format: functional
UACC-257 = assay: Antitumor activity against human UACC257 cells after 48 hrs; format: functional; conditions: UACC-257, 48 h
UO-31 = assay: Antitumor activity against human UO31 cells after 48 hrs; format: functional; conditions: UO-31, 48 h
PC-3 = assay: Antitumor activity against human PC3 cells after 48 hrs; format: functional; conditions: PC-3, 48 h
HCT-116 = assay: Antitumor activity against human HCT116 cells after 48 hrs; format: functional; conditions: HCT-116, 48 h
HL-60(TB) = assay: Antitumor activity against human HL-60(TB) cells after 48 hrs; format: functional; conditions: HL-60, 48 h
SNB-19 = assay: Antitumor activity against human SNB19 cells after 48 hrs; format: functional; conditions: SNB-19, 48 h
HCT-15 = assay: Antitumor activity against human HCT15 cells after 48 hrs; format: functional; conditions: HCT-15, 48 h
HT-29 = assay: Antitumor activity against human HT-29 cells after 48 hrs; format: functional; conditions: HT-29, 48 h
HOP-62 = assay: Antitumor activity against human HOP62 cells after 48 hrs; format: functional; conditions: HOP-62, 48 h
786-0 = assay: Antitumor activity against human 786-0 cells after 48 hrs; format: functional; conditions: 786-0, 48 h
SW-620 = assay: Antitumor activity against human SW620 cells after 48 hrs; format: functional; conditions: SW-620, 48 h
MCF7 = assay: Antitumor activity against human MCF7 cells after 48 hrs; format: functional; conditions: MCF7, 48 h
[11] = Antitumor activity against human HCC2998 cells after 48 hrs; format: functional; conditions: HCC 2998, 48 h
MDA-MB-435 = assay: Antitumor activity against human MDA-MB-435 cells after 48 hrs; format: functional; conditions: MDA-MB-435, 48 h
DU-145 = assay: Antitumor activity against human DU145 cells after 48 hrs; format: functional; conditions: DU-145, 48 h
ACHN = assay: Antitumor activity against human ACHN cells after 48 hrs; format: functional
SK-MEL-5 = assay: Antitumor activity against human SK-MEL-5 cells after 48 hrs; format: functional; conditions: SK-MEL-5, 48 h
T47D = assay: Antitumor activity against human T47D cells after 48 hrs; format: functional
SK-OV-3 = assay: Antitumor activity against human SKOV3 cells after 48 hrs; format: functional; conditions: SK-OV-3, 48 h
CCRF-CEM = assay: Antitumor activity against human CCRF-CEM cells after 48 hrs; format: functional
[12] = Antitumor activity against human RXF393 cells after 48 hrs; format: functional; conditions: RXF 393, 48 h
NCI-H226 = assay: Antitumor activity against human NCI-H226 cells after 48 hrs; format: functional; conditions: NCI-H226, 48 h

COc1cc(/C(C#N)=C/c2ccc3ccccc3n2)cc(OC)c1OC
GI50 (A549): 375 nM | GI50 [1]: 736 nM | GI50 (K562): 80 nM | GI50 [2]: 297 nM | GI50 (SK-MEL-28): 518 nM | GI50 (SNB-75): 182 nM | GI50 (A498): 295 nM | GI50 (Malme-3M): inactive | GI50 [3]: 689 nM | GI50 (NCI-H322M): 718 nM | GI50 (TK-10): 4690 nM | GI50 [4]: 766 nM | GI50 [5]: 315 nM | GI50 (NCI-H460): 361 nM | GI50 [6]: 198 nM | GI50 (SK-MEL-2): 483 nM | GI50 (CAKI-1): 68 nM | GI50 (UACC-62): 92 nM | GI50 (MDA-MB-468): 243 nM | GI50 (EKVX): inactive | GI50 [7]: 277 nM | GI50 (OVCAR-5): 580 nM | GI50 (SR): inactive | GI50 (IGROV-1): 846 nM | GI50 (KM12): 350 nM | GI50 (OVCAR-3): 163 nM | GI50 [8]: 197 nM | GI50 (NCI-H23): 751 nM | GI50 (M14): 173 nM | GI50 (OVCAR-8): 446 nM | GI50 (NCI-H522): 37.2 nM | GI50 [9]: 488 nM | GI50 (OVCAR-4): 1430 nM | GI50 (U-251): 355 nM | GI50 [10]: 112 nM | GI50 (MDA-MB-231): 943 nM | GI50 (SF-268): 835 nM | GI50 (SN12C): 627 nM | GI50 (UACC-257): 761 nM | GI50 (UO-31): 762 nM | GI50 (PC-3): 348 nM | GI50 (HCT-116): 234 nM | GI50 (HL-60(TB)): 223 nM | GI50 (SNB-19): 578 nM | GI50 (HCT-15): 319 nM | GI50 (HT-29): 240 nM | GI50 (HOP-62): 567 nM | GI50 (786-0): 445 nM | GI50 (SW-620): 164 nM | GI50 (MCF7): 275 nM | GI50 [11]: 610 nM | GI50 (MDA-MB-435): 33 nM | GI50 (DU-145): 446 nM | GI50 (ACHN): 1040 nM | GI50 (SK-MEL-5): 243 nM | GI50 (T47D): 4760 nM | GI50 (SK-OV-3): 524 nM | GI50 (CCRF-CEM): 248 nM | GI50 [12]: 271 nM | GI50 (NCI-H226): 4780 nM

COc1cc(OC)cc(/C(C#N)=C/c2cnc3ccccc3c2)c1
GI50 (A549): 556 nM | GI50 [1]: 3090 nM | GI50 (K562): 243 nM | GI50 [2]: 332 nM | GI50 (SK-MEL-28): 1400 nM | GI50 (SNB-75): 224 nM | GI50 (A498): 333 nM | GI50 (Malme-3M): 635 nM | GI50 [3]: 715 nM | GI50 (NCI-H322M): 903 nM | GI50 (TK-10): 17700 nM | GI50 [4]: 672 nM | GI50 [5]: 388 nM | GI50 (NCI-H460): 362 nM | GI50 [6]: 398 nM | GI50 (SK-MEL-2): 709 nM | GI50 (CAKI-1): 223 nM | GI50 (UACC-62): 357 nM | GI50 (MDA-MB-468): 217 nM | GI50 (EKVX): inactive | GI50 [7]: 243 nM | GI50 (OVCAR-5): 587 nM | GI50 (SR): inactive | GI50 (IGROV-1): 3500 nM | GI50 (KM12): 409 nM | GI50 (OVCAR-3): 279 nM | GI50 [8]: 289 nM | GI50 (NCI-H23): 747 nM | GI50 (M14): 310 nM | GI50 (OVCAR-8): 584 nM | GI50 (NCI-H522): 69 nM | GI50 [9]: 378 nM | GI50 (OVCAR-4): 1730 nM | GI50 (U-251): 374 nM | GI50 [10]: 224 nM | GI50 (MDA-MB-231): 1150 nM | GI50 (SF-268): 654 nM | GI50 (SN12C): 661 nM | GI50 (UACC-257): 12800 nM | GI50 (PC-3): 506 nM | GI50 (HCT-116): 420 nM | GI50 (HL-60(TB)): 234 nM | GI50 (SNB-19): 614 nM | GI50 (HCT-15): 455 nM | GI50 (HT-29): 362 nM | GI50 (HOP-62): 793 nM | GI50 (786-0): 484 nM | GI50 (SW-620): 352 nM | GI50 (MCF7): 333 nM | GI50 [11]: 1450 nM | GI50 (MDA-MB-435): 53 nM | GI50 (DU-145): 505 nM | GI50 (ACHN): 1190 nM | GI50 (SK-MEL-5): 249 nM | GI50 (T47D): 628 nM | GI50 (SK-OV-3): 576 nM | GI50 (CCRF-CEM): 332 nM | GI50 [12]: 297 nM | GI50 (NCI-H226): 62200 nM
